Source: US4029688A, “Carbamic pesticidal compositions” (priority 1974, dated 1977)
Converted amounts (≈) assume the structure as drawn.

Assays:
[1] = Peroral toxicity to mammals (rat); conditions: in vivo, po
Protocol: Certain of these compositions were also evaluated to determine their peroral toxicity to mammals. The animal selected for this experiment was the rat. The test results obtained are expressed in terms of the number of milligrams of composition per kilogram of weight of the animal required to achieve a mortality rate of 50 percent (LD50).

[2] = Chemical stability; format: physicochemical; conditions: Table II
[3] = test system: root-knot nematode, Meloidogyne incognita var. acrita; assay: Nematocide Test; format: in vivo; design: key: C: no control; B: partial control; A: excellent control; conditions: 3.33 m.g. per jar, galling of cucumber rated after approximately 3 weeks
Protocol: The test organism used was the infective migratory larvae of the root-knot nematode, Meloidogyne incognita var. acrita, reared in the greenhouse on roots of cucumber plants. Infected plants were removed from the culture, and the roots are chopped very finely. A small amount of this inoculum was added to a pint jar containing approximately 180 cc. of soil. The jars were capped and incubated for one week at room temperature. During this period eggs of the nematode were hatched, and the larval forms migrated into the soil.
Ten ml. of the test formulation were added to each of the two jars for each dosage tested. Following the addition of chemical, the jars were capped, and the contents thoroughly mixed on a ball mill for 5 minutes.
The test compounds were formulated by a standard procedure of solution in acetone addition of an emulsifier, and dilution with water. Primary screening tests were conducted at 3.33 m.g. of the test compound per jar.
The jars were left capped at room temperature for a period of 48 hours, and the contents then transferred to 3 inch pots. Subsequently, the pots were seeded to cucumber as an indicator crop and placed in the greenhouse where they were cared for in the normal fashion for approximately 3 weeks.
The cucumber plants were then taken from the pots, the soil removed from the roots, and the amount of galling visually rated.
In the tests described above, the pesticidal activity of the compounds against aphid, mite, Southern Armyworm, Bean Beetle, house fly and nematode was rated as follows: […]

[4] = test system: southern armyworm (Prodenia eridania, (Cram.)); assay: Southern Armyworm Leaf Spray Test; format: in vivo; design: key to Armyworm: C: no control; B: partial control; A: excellent control; conditions: for LC50: Spodoptera eridania, Table II, read-out: Armyworm LD50; for Armyworm: leaf spray, 500 parts per million, three days
Protocol: (§1) Suspensions of the test compounds were prepared by dissolving one gram of compound in 50 milliliters of acetone in which had been dissolved 0.1 gram (10 percent of the weight of compound) of an alkylphenoxy polyethoxyethanol surfactant, as an emulsifying or dispersing agent. The resulting solution was mixed into 150 milliliters of water to give roughly 200 milliliters of a suspension containing the compound in finely divided form. The thus-prepared stock suspension contained 0.5 percent by weight of compound. The test concentrations in parts per million by weight employed in the tests described hereinbelow were obtained by appropriate dilutions of the stock suspension with water. The test procedures were as follows:
Larvae of the southern armyworm (Prodenia eridania, (Cram.)), reared on Tendergreen bean plants at a temperature of 80°±5° F. and a relative humidity of 50±5 percent, constituted the test insects.
The test compounds were formulated by diluting the stock suspension with water to give a suspension containing 500 parts of test compound per million parts of final formulation. Potted Tendergreen bean plants of standard height and age were placed on a revolving turntable and sprayed with 100-110 milliliters of test compound formulation by use of a DeVilbiss spray gun set at 10 psig air pressure. This application, which lasted 25 seconds, was sufficient to wet plants to run-off. As a control, 100-110 milliliters of a water-acetone-emulsifier solution containing no test compound were also sprayed on infested plants. When dry, the paired leaves were separated and each one was placed in a 9 centimeter Petri dish lined with moistened filter paper. Five randomly selected larvae were introduced into each dish and the dishes were closed. The closed dishes were labeled and held at 80-85° F. for three days. Although the larvae could easily consume the whole leaf within twenty-four hours, no more food was added. Larvae which were unable to move the length of the body, even upon stimulation by prodding, were considered dead. Percent mortality was recorded for various concentration levels.
(§2) In the tests described above, the pesticidal activity of the compounds against aphid, mite, Southern Armyworm, Bean Beetle, house fly and nematode was rated as follows:
(§3) Comparison tests were conducted to assess the biological and chemical properties of certain representative species of the claimed invention in relation to their corresponding N-methyl carbamate compositions. The test procedures described above were employed in these experiments in order to determine the LD50 (number of parts per million of active ingredients required to achieve fifty percent mortality of the insects tested) for each of the compositions tested. In the case of the aphid and mite tests a side by side comparison was made of the N-methyl carbamate composition versus the corresponding perhalomethylsulfenyl derivative.

[5] = test system: Mexican bean beetle (Epilachna varivestis, Muls.); assay: Mexican Bean Beetle Leaf Spray Test; format: in vivo; design: key to Beetle: C: no control; B: partial control; A: excellent control; conditions: for LC50: Epilachna varivestis, Table II, read-out: Beetle LD50; for Beetle: leaf spray, 500 parts per million, three days
Protocol: as §1
Fourth instar larvae of the Mexican bean beetle (Epilachna varivestis, Muls.), reared on Tendergreen bean plants at a temperature of 80°±5° F. and 50±5 percent relative humidity, were the test insects.
The test compounds were formulated by diluting the stock suspension with water to give a suspension containing 500 parts of test compound per million parts of final formulation. Potted Tendergreen bean plants of standard height and age were placed on a revolving turntable and sprayed with 100-110 milliliters of test compound formulation by use of a DeVilbiss spray gun set at 10 psig air pressure. This application, which lasted 25 seconds, was sufficient to wet plants to run-off. As a control, 100-110 milliliters of a water-acetone-emulsifier solution containing no test compound were also sprayed on infested plants. When dry, the paired leaves were separated and each was placed in a 9 centimeter Petri dish lined with moistened filter paper. Five randomly selected larvae were introduced into each dish, and the dishes were closed. The closed dishes were labeled and held at a temperature of 80°±5° F. for three days. Although the larvae could easily consume the leaf within 24 to 48 hours, no more food was added. Larvae which were unable to move the length of the body, even upon stimulation, were considered dead.
as §2, §3

Row | Structure (SMILES) | LD50 ([1]; peroral, Table I) | Stability [2] | Nematode [3] | LC50 [4] | Armyworm [4] | LC50 [5] | Beetle [5] | LD50 ([1]; Table II)
1 | CC(=NOC(=O)N(C)SC(Cl)(Cl)Cl)SCCC#N [1-(2-Cyanoethylthio)acetaldehyde O-(N-methyl-N-trichloromethanesulfenylcarbamoyl)oxime] | 85.7 mg/kg | stable | C | 6 µg/mL (≈ 17.1 µM) | A | 15 µg/mL (≈ 42.8 µM) | A | –
2 | CCOC(=O)C(C)SC(C)(C)C=NOC(=O)N(C)SC(Cl)(Cl)Cl (stereo not shown) | – | – | C | – | C | – | C | –
3 | CCOC(=O)CSC(C)(C)C=NOC(=O)N(C)SC(Cl)(Cl)Cl | – | – | C | – | C | – | B | –
4 | CCOC(=O)CCSC(C)=NOC(=O)N(C)SC(Cl)(Cl)Cl | – | – | C | – | B | – | B | –
5 | CN(SC(Cl)(Cl)Cl)C(=O)ON=CC(C)(C)C#N [2-Methyl-2-cyanopropionaldehyde O-(N-methyl-N-trichloromethanesulfenylcarbamoyl)oxime] | – | stable | C | 50 µg/mL (≈ 157 µM) | A | 45 µg/mL (≈ 141 µM) | A | 28.3 mg/kg
6 | CN(SC(Cl)(Cl)Cl)C(=O)ON=CC(C)(C)[S+](C)[O-] (stereo not shown) [2-Methyl-2-methylsulfinylpropionaldehyde O-(N-methyl-N-trichloromethanesulfenylcarbamoyl)oxime] | – | – | A | – | A | – | A | –
7 | CN(SC(Cl)(Cl)Cl)C(=O)ON=CC(C)(C)S(C)(=O)=O [2-Methyl-2-methylsulfonylpropionaldehyde O-(N-methyl-N-trichloromethanesulfenylcarbamoyl)oxime] | – | – | C | – | C | – | A | –
8 | CC(=NOC(=O)N(C)SC(Cl)(Cl)Cl)C(C)(C)C#N | – | – | C | – | B | – | A | –
9 | CSCC(=NOC(=O)N(C)SC(Cl)(Cl)Cl)C(C)(C)C | – | – | C | – | C | – | A | –
10 | CSC(=NOC(=O)N(C)SC(Cl)(Cl)Cl)C(C)(SC)SC | – | – | C | – | C | – | A | –
11 | CC(=NOC(=O)N(C)SC(Cl)(Cl)Cl)C(C)(C)N=[N+]=[N-] | – | – | C | – | C | – | A | –
12 | CSCC(C)=NOC(=O)N(C)SC(Cl)(Cl)Cl | – | – | C | – | C | – | C | –
13 | CCOC(=O)CSC(C)=NOC(=O)N(C)SC(Cl)(Cl)Cl | – | – | C | – | C | – | C | –
14 | CN(SC(Cl)(Cl)Cl)C(=O)ON=CC(C)(C)[N+](=O)[O-] [2-Methyl-2-nitropropionaldehyde O-(N-methyl-N-trichloromethanesulfenylcarbamoyl)oxime] | 13 mg/kg | stable | A | 130 µg/mL (≈ 384 µM) | A | 17 µg/mL (≈ 50.2 µM) | A | 14 mg/kg
15 | CN(SC(F)(F)F)C(=O)ON=CC(C)(C)C#N [drawing 12] | – | – | A | – | A | – | A | –
16 | CC(CSC(C)(C)C)=NOC(=O)N(C)SC(Cl)(Cl)Cl | – | – | C | – | C | – | C | –
17 | COC(C)(C)C(Cl)=NOC(=O)N(C)SC(Cl)(Cl)Cl | – | – | A | – | C | – | A | –
18 | CC(=NOC(=O)N(C)SC(Cl)(Cl)Cl)C(C)(C)[N+](=O)[O-] | – | – | A | – | B | – | A | –
19 | CC(C[N+](=O)[O-])=NOC(=O)N(C)SC(Cl)(Cl)Cl | – | – | C | – | C | – | B | –
